Assay results published in patent US20060135485A1, “Microbicidal compositions and their use” (priority 2002, published 2006).

What was measured:
Type in all cases: cell-based
[1] = tested on: Pseudomonas aeruginosa ATCC 9027, Candida albicans ATCC 10231, Aspergillus niger ATCC 16404; assay: Preservation loading test in styrene butadiene emulsions; details: sole active component, neutral conditions, typical polymer emulsion; bacteria, yeasts and moulds
Procedure: Styrene Butadiene Emulsions were inoculated with 1×10^6 of the test culture, stored for 7 days at 25° C. and then a semi-quantitative determination of colony forming units was carried out. This loading test was carried out with a representative bacteria (Pseudomonas aeruginosa ATCC 9027), a representative yeast (Candida albicans ATCC 10231) and a representative mould (Aspergillus niger ATCC 16404) over consecutive weeks until the product has been subjected to (at least) three separate loadings of each culture type. The concentration of preserving agent at which no recovery of the test organisms was observed is the end point of the test and adequacy of preservation is assumed.

[2] = tested on: Proteus mirabilis (PRM) ATCC 14153; assay: MIC culture tube dilution test; details: pH 7.2±0.2, 72 hour incubation at 36° C.
Procedure: (§1) Microbiocides and microbiocidal properties were determined experimentally. Very well suited test methods are described in detail in the German Society for Hygiene and Microbiology (GGHM) for the examination of disinfectants. In order to determine the MIC, culture tube dilution tests were carried out according to the “regulations for the examination and evaluation of chemical disinfection procedures (Edition 1.1.81, procedures slightly modified)” using a […]-soya bean meal peptide medium. The dilution was carried out with water of standardised hardness without further agents such as surfactants. The adjustment of the pH values to 7.2±0.2 was carried out with 0.1 mol/NaOH or 0.1 mol/HCl. The gradation of test concentrations was made according to the concentration steps proposed by the GGHM. The evaluation was carried out after a 72 hour incubation at 36° C. [table] One part polyvinylamine, consisting of 95 wt % vinyl units and 5 wt % vinylformamide units with a K-value of 90 were mixed with 4.2 parts cyclohexyldiazeniumdioxy potassium. […] The effectiveness was determined according to the abovementioned methods. MIC stated here gives the minimal effective concentration, in which a.i. (active ingredient) means the active component.

[3] = tested on: Escherichia coli (EC) ATCC 11229; assay: MIC culture tube dilution test; details: pH 7.2±0.2, 72 hour incubation at 36° C.
Procedure: as §1

[4] = tested on: Aspergillus niger (ASN) ATCC 16404; assay: MIC culture tube dilution test; details: pH 7.2±0.2, 72 hour incubation at 36° C.
Procedure: as §1

[5] = tested on: Pseudomonas aeruginosa (PSA) ATCC 15442; assay: MIC culture tube dilution test; details: pH 7.2±0.2, 72 hour incubation at 36° C.
Procedure: as §1

[6] = tested on: Candida albicans (CA) ATCC 10231; assay: MIC culture tube dilution test; details: pH 7.2±0.2, 72 hour incubation at 36° C.
Procedure: as §1

[7] = tested on: Staphylococcus aureus (STA) ATCC 6538; assay: MIC culture tube dilution test; details: pH 7.2±0.2, 72 hour incubation at 36° C.
Procedure: as §1

SMILES: O=NN(O)C1CCCCC1.[K] [KHDO, potassium salt of N′-hydroxy-N-cyclohexyl-diazenium oxide]
- Killing of spoilage microorganisms (in words) [1]: able not only to inhibit but actively kill a representative range of spoilage microorganisms
- MIC Cyclohexyldiazeniumdioxy potassium [ppm a.i.] B [2]: 750 ppm a.i.
- MIC Cyclohexyldiazeniumdioxy potassium [ppm a.i.] B [3]: 350 ppm a.i.
- MIC Cyclohexyldiazeniumdioxy potassium [ppm a.i.] B [4]: 175 ppm a.i.
- MIC Cyclohexyldiazeniumdioxy potassium [ppm a.i.] B [5]: 3000 ppm a.i.
- MIC Cyclohexyldiazeniumdioxy potassium [ppm a.i.] B [6]: 350 ppm a.i.
- MIC Cyclohexyldiazeniumdioxy potassium [ppm a.i.] B [7]: 750 ppm a.i.
